In brackets after ≈: the same amount, converted by molar mass.
Assays:
Format in all cases: in vivo
[1] = system: Bemisia tabaci (Gennadius) nymphs; assay: Joint toxicity of I-72 + bifenthrin, Example 40, Table 40; conditions: in Gossypium hirsutum, 96 h
Description: Test target: Bemisia tabaci (Gennadius) nymphs, a sensitive strain reared indoors.
(§1) Preparation of the pesticide solution: according to different test requirements, the test samples were accurately weighed respectively with an electronic analytical balance. The technical pesticides were dissolved in acetone, and then diluted with 0.1% Tween 80 water into a series of pesticide solutions with a certain concentration gradient according to the experimental design dosage.
(§2) Experimental method: first, cotton leaves with neat and consistent Bemisia tabaci (Gennadius) nymphs were selected and made into leaf disks, with about 20 insects on each leaf disk. Then, they were evenly sprayed with the pesticide solution in the order from low dosage to high dosage according to the experimental design, with 1.5 mL for each leaf and 3 replicates for each treatment. In addition, a blank control was set up.
(§3) The treated test materials were placed in an observation room, and the temperature, humidity and illumination of the observation room could be adjusted as needed. The number of dead and live insects was investigated 96 hours later. […] Then, the co-toxicity coefficient of each ratio was calculated using the Sun Y-P method to evaluate the mixing effect (the same as in Example 1).

[2] = system: 3rd-instar larvae of Ostrinia furnacalis Guenee; assay: Joint toxicity of I-72 + lambda-cyhalothrin, Example 42, Table 42; conditions: in Zea mays, 72 h
Description: Test target: 3rd-instar larvae of Ostrinia furnacalis Guenee.
as §1
(§4) Experimental method: first, tender corn stems were selected and dipped in the prepared pesticide solution for 10 s in the order from low dosage to high dosage according to the experimental design. After natural air-drying in the shade, they were placed in a 9-cm-diameter Petri dish with filter paper, and uniform and healthy test insects were introduced, with 10 insects for each treatment and 3 replicates for each treatment. In addition, a blank control was set up.
as §3, with “72” for “96”

[3] = system: 2nd-instar larvae of Chilo suppressalis (Walker); assay: Joint toxicity of I-72 + azadirachtin, Example 36, Table 36; conditions: in Oryza sativa, 72 h
Source text: Test target: 2nd-instar larvae of Chilo suppressalis (Walker). The insect source was collected from Nanchang, Jiangxi Province, and it is the 11th generation continuously cultured indoors, with a relatively high resistance level to amide pesticides such as chlorantraniliprole.
Experimental method: the spraying method was adopted. Rice stalks with the same length and thickness were selected, cut into the same length, and evenly sprayed with the pesticide solution in the order from low dosage to high dosage according to the experimental design, with 1.5 mL of the pesticide solution for each treatment. The stalks were placed in a 6-cm-diameter Petri dish with filter paper. After natural air-drying in the shade, uniform and healthy test insects were introduced, with 10 insects for each treatment and 4 replicates for each treatment. In addition, a blank control was set up. The number of dead and live insects was investigated 72 hours later. The corrected mortality rate was calculated using the Abbott's formula, and the DPS data processing software was used for statistical analysis to calculate the toxicities (LC50 values) of the single test pesticides and the mixtures under the test ratios.
(§5) The test conditions, the preparation of the pesticide solution and the evaluation method were the same as those in Example 1.

[4] = system: 2nd-instar larvae of Mythimna separata; assay: Joint toxicity of I-72 + beta-cyfluthrin, Example 41, Table 41; conditions: A = compound I-72, B = beta-cyfluthrin; corn leaf dipping; 72 hours
Description: Test target: 2nd-instar larvae of Mythimna separata.
as §1
as §4, with “first,” for “first, tender”, “leaves” for “stems”
as §3, with “72” for “96”

[5] = system: adult Phyllotreta vittuta Fabr.; assay: Joint toxicity of I-72 + deltamethrin, Example 45, Table 45; conditions: 72 h
Description: Test target: adult Phyllotreta vittuta Fabr.
as §1
Experimental method: first, uniform and consistent potted cabbage seedlings were selected. Then, uniform spraying was performed with the pesticide solution in the order from low dosage to high dosage according to the experimental design. After air-drying in the shade, adult flea beetles were transferred onto the treated cabbage seedlings, and then glass covers were put on them, with about 30-40 adult flea beetles on each seedling and 3 replicates for each treatment. In addition, a blank control was set up.
as §3, with “72” for “96”

[6] = system: Nilaparvata lugens (Stal) nymphs; assay: Joint toxicity of I-72 + etofenprox, Example 44, Table 44; conditions: in Oryza sativa, 72 h
Description: Test target: Nilaparvata lugens (Stal) nymphs, a sensitive strain reared indoors.
as §1
Experimental method: the activity of the mixture against the Nilaparvata lugens (Stal) nymphs was determined by adopting the potted-seedling spraying method. First, rice seedlings were planted in culture pots. Uniform spraying was performed with the pesticide solution in the order from low dosage to high dosage according to the experimental design, with 2 mL for each seedling. Then, Nilaparvata lugens nymphs of uniform size were transferred onto the rice seedlings, with 3 replicates for each treatment. In addition, a blank control was set up.
as §3, with “72” for “96”

[7] = system: adult Tetranychus cinnabarinus (Boisduval); assay: Joint toxicity of I-72 + fenpropathrin, Example 39, Table 39; conditions: 72 h
Description: Test target: adult Tetranychus cinnabarinus (Boisduval), a sensitive strain reared indoors.
as §1
Experimental method: the activity of the mixture against the adult Tetranychus cinnabarinus (Boisduval) was determined by adopting the potted-seedling spraying method. First, the adult Tetranychus cinnabarinus of uniform size were transferred onto the leaves of kidney bean seedlings at the stage when the first pair of true leaves was fully expanded. After the adult mites had stabilized, the base number was counted. Then, the uniform spraying was performed with the pesticide solution in the order from low to high dose according to the experimental design, with 1.5 mL for each seedling and 3 replicates for each treatment. […]
as §3, with “needed.” for “needed. The number of dead and live insects was investigated 96 hours later.”, “effect,” for “effect (the same”, “1.” for “1).”

[8] = system: second-instar larvae of Meloidogyne incognita; assay: In vitro joint toxicity of I-72 + fluopyram, 24-well plate, Example 32, Table 32; conditions: 48 h
Description: Test target: second-instar larvae of Meloidogyne incognita, a sensitive strain reared in a greenhouse.
as §1
Experimental method: the prepared pesticide solutions were added to a 24-well plate in the order from low dosage to high dosage according to the experimental design. In each well of each treatment, 50 nematodes were placed. Each drug had 5 concentrations set, with 3 replicates. After the treatment, the 24-well plate was placed in a constant temperature incubator at 25° C. In addition, a blank control group was set up. The number of dead and live insects was investigated 48 hours later. […] Then, the co-toxicity coefficient of each ratio was calculated using the Sun Y-P method to evaluate the mixing effect (the same as in Example 1).

[9] = system: mixed aphids of Myzus persicae (Sulzer); assay: Joint toxicity of I-72 + matrine, Example 34, Table 34; conditions: in Brassica oleracea, 48 h
Source text: Test subject: mixed aphids of Myzus persicae (Sulzer), a sensitive strain reared indoors.
Experimental method: the spraying method on leaves with aphids was adopted. Cabbage leaves with a certain number of Myzus persicae (Sulzer) were taken. The prepared pesticide solutions were evenly sprayed on both the front and back sides of the leaves in the order from low concentration to high concentration according to the experimental design. Then, the leaves were placed in a 6-cm-diameter Petri dish with filter paper. After natural air-drying in the shade, they were placed in the observation room. The experiment had 3 replicates set, and in addition, a blank control was set up. The number of dead and live insects was investigated 48 hours later. The corrected mortality rate was calculated using the Abbott's formula, and the DPS data processing software was used for statistical analysis to calculate the toxicities (LC50 values) of the single test pesticides and the mixtures under the test ratios.
as §5

[10] = system: adult Phyllotreta striolata (Walker); assay: Joint toxicity of I-72 + rotenone, insect dipping, Example 35, Table 35
Source text: Test target: adult Phyllotreta striolata (Walker), a strain reared indoors.
Experimental method: the dipping method was adopted. Adult flea beetles of uniform size were put into an insect-dipping cage and dipped for 10 s in the order from low dosage to high dosage according to the experimental design, with 30 beetles for each treatment. The beetles were placed in a 9-cm-diameter Petri dish with filter paper, with 3 replicates for each treatment. In addition, a blank control was set up. The treated test materials were placed in an observation room, and the temperature, humidity and illumination of the observation room could be adjusted as needed.
as §5

[11] = system: Aphis gossypii Glover nymphs; assay: Joint toxicity of I-72 + spiropidion, Example 28, Table 28; conditions: A = compound I-72, B = spiropidion; cotton leaf spraying; 48 hours
Description: Test target: Aphis gossypii Glover nymphs, a sensitive strain reared indoors.
as §1
as §2, with “uniform” for “neat”, “Aphis gossypii” for “Bemisia tabaci (Gennadius) nymphs”, “selected,” for “selected and made into leaf disks,”, “30-40” for “20”, “leaf.” for “leaf disk.”
as §3, with “48” for “96”

[12] = system: 2nd-instar larvae of Plutella xylostella; assay: Joint toxicity of I-72 + spiropidion, Example 31, Table 31; conditions: A = compound I-72, B = spiropidion; cabbage leaf dipping; 72 hours
Description: Test target: 2nd-instar larvae of Plutella xylostella.
as §1
as §4, with “cabbage leaves” for “tender corn stems”
as §3, with “72” for “96”

[13] = system: adult Tetranychus urticae Koch; assay: Joint toxicity of I-72 + spirobudifen, Example 29, Table 29; conditions: 72 h
Description: as §1
In addition, a blank control was set up.
The treated test materials were placed in an observation room, and the temperature, humidity and illumination of the observation room could be adjusted as needed.

[14] = system: Unaspis yanonensis Kuwana nymphs; assay: whole plant or invertebrate; conditions: foliar, 120 h
Description: Test target: Unaspis yanonensis Kuwana nymphs.
as §1
Experimental method: the activity of the mixture against Unaspis yanonensis Kuwana nymphs on citrus was determined by adopting the dipping method. First, the collected citrus leaves with Unaspis yanonensis Kuwana nymphs were treated with the pesticide solution in the order from low dosage to high dosage according to the experimental design. After air-drying, the petioles were kept moist with degreased cotton, and then the leaves were placed in a Petri dish, with 3 replicates for each treatment. In addition, a blank control was set up.
The treated test materials were placed in an observation room, and the temperature, humidity and illumination of the observation room could be adjusted as needed. The number of dead and live insects was investigated 120 hours later.

[15] = system: Thrips flavus Schrank nymphs; assay: Joint toxicity of I-72 + spirotetramat, Example 26, Table 26; conditions: in Solanum melongena, 48 h
Description: Test target: Thrips flavus Schrank nymphs.
as §1
Experimental method: first, eggplant seedlings with Thrips flavus Schrank were selected, and the base number was counted. Then, uniform spraying was performed with the pesticide solution in the order from low to high doses according to the experimental design, with 2 mL for each seedling and 3 replicates for each treatment. In addition, a blank control was set up.
as §3, with “48” for “96”

Cc1c(COC(=O)[C@@H]2[C@H](/C=C(\Cl)C(F)(F)F)C2(C)C)cccc1-c1ccccc1 (racemic) [bifenthrin]
LC50 [1]: 62.4 µg/mL

CC1(C)[C@H](C(=O)O[C@H](C#N)c2cccc(Oc3ccccc3)c2)[C@@H]1/C=C(\Cl)C(F)(F)F (racemic) [lambda-cyhalothrin]
LC50 [2]: 1.83 µg/mL

C/C=C(\C)C(=O)O[C@H]1C[C@@H](OC(C)=O)[C@@]2(C(=O)OC)CO[C@H]3[C@@H](O)[C@@](C)([C@]45O[C@@]4(C)[C@H]4C[C@@H]5O[C@@H]5OC=C[C@@]54O)[C@H]4[C@]1(CO[C@]4(O)C(=O)OC)[C@@H]32 [azadirachtin]
LC50 [3]: 22.5 µg/mL

CC1(C)C(C=C(Cl)Cl)C1C(=O)OC(C#N)c1ccc(F)c(Oc2ccccc2)c1 (stereo not drawn) [beta-cyfluthrin]
LC50 [4]: 1.0438 mg/L

CC1(C)[C@H](C(=O)O[C@H](C#N)c2cccc(Oc3ccccc3)c2)[C@@H]1C=C(Br)Br [deltamethrin]
LC50 [5]: 6.76 µg/mL

CCOc1ccc(C(C)(C)COCc2cccc(Oc3ccccc3)c2)cc1 [etofenprox]
LC50 [6]: 25.4 µg/mL

CC1(C)C(C(=O)OC(C#N)c2cccc(Oc3ccccc3)c2)C1(C)C (stereo not drawn) [fenpropathrin]
LC50 [7]: 5.52 µg/mL

O=C(NCCc1ncc(C(F)(F)F)cc1Cl)c1ccccc1C(F)(F)F [fluopyram]
LC50 [8]: 0.609 µg/mL

O=C1CCC[C@@H]2[C@H]3CCCN4CCC[C@@H](CN12)[C@@H]34 [matrine]
LC50 [9]: 3.24 µg/mL

C=C(C)[C@H]1Cc2c(ccc3c2O[C@@H]2COc4cc(OC)c(OC)cc4[C@@H]2C3=O)O1 [rotenone]
LC50 [10]: 19.5 µg/mL

CCOC(=O)OC1=C(c2c(C)cc(Cl)cc2C)C(=O)N(C)C12CCN(OC)CC2 [spiropidion]
LC50 [11]: 4.8686 mg/L | LC50 [12]: 631.4873 mg/L

CCOC(=O)OC1=C(c2cc(C)ccc2C)C(=O)N[C@]12CC[C@@H](OC)CC2 [spirotetramat]
LC50 [13]: 8.2 µg/mL | LC50 [14]: 8.91 µg/mL (≈ 23.9 µM) | LC50 [15]: 12.3 µg/mL
